Literature values in patent publication US9464021B2, “Method of preparation of stereospecific quinone derivatives” (priority 2013, dated 2016).

Assays:
[1] = in vivo
[2] = liver fractions

SMILES	biological activity as vitamin K [1]	hepatic subcellular distribution [2]
CC1=C(C/C=C(/C)CCC[C@H](C)CCC[C@H](C)CCCC(C)C)C(=O)c2ccccc2C1=O (relative stereo) [cis-phylloquinone]	little or no biological activity as vitamin K	retained preferentially by mitochondria
CC1=C(C/C=C(\C)CCC[C@H](C)CCC[C@H](C)CCCC(C)C)C(=O)c2ccccc2C1=O (single isomer, unassigned) [trans isomer, phylloquinone]	full potency of the vitamin	associated principally with the microsomal fraction and subfractions
